Legend:
[1] = predicted hepatic clearance from human microsomal CLint; assay type: in vitro ADME; conditions: based on CLint data from microsomes
[2] = target: T1, hM4 (Homo sapiens, UniProt P08173); experiment: calcium mobilization assay, hM4 CHO cells co-transfected with Gqi5, ACh EC80; assay type: cell-based; conditions: SAR text on Table 2
T1 sequence (P08173 1-479): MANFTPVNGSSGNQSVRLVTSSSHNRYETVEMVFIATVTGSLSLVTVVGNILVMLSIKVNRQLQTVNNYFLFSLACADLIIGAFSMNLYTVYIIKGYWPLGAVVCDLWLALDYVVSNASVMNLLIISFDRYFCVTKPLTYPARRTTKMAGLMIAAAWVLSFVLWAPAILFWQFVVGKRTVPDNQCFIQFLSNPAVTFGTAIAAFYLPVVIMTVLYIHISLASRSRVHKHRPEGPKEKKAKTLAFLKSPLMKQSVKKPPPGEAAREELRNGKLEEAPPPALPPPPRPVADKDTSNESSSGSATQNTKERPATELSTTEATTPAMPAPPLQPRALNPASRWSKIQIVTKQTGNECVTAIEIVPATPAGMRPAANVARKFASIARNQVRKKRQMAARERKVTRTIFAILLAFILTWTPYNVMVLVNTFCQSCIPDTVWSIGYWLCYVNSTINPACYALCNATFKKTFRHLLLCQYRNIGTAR

[3] = target: T2, M5 (Homo sapiens, UniProt P08912); experiment: calcium mobilization assay, hM5 CHO cells, approximate EC80 of ACh; assay type: cell-based; conditions: n = 1
T2 sequence (P08912 1-532): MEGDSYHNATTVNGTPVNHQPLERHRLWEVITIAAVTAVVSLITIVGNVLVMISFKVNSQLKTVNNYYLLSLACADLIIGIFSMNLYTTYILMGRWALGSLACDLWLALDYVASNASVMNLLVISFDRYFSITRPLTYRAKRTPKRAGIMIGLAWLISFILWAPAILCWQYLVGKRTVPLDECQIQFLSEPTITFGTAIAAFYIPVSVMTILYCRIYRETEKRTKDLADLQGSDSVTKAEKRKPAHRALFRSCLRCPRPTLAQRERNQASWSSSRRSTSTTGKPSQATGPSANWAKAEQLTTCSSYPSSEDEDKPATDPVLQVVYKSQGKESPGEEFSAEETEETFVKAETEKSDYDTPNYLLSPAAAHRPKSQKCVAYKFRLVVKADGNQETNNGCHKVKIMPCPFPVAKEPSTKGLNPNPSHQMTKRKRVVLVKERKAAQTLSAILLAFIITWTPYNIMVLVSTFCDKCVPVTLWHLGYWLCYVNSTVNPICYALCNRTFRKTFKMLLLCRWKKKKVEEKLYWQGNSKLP

[4] = target: T3, M1 (Homo sapiens, UniProt P11229); experiment: calcium mobilization assay, hM1 CHO cells, approximate EC80 of ACh; assay type: cell-based; conditions: n = 1
T3 sequence (P11229 1-460): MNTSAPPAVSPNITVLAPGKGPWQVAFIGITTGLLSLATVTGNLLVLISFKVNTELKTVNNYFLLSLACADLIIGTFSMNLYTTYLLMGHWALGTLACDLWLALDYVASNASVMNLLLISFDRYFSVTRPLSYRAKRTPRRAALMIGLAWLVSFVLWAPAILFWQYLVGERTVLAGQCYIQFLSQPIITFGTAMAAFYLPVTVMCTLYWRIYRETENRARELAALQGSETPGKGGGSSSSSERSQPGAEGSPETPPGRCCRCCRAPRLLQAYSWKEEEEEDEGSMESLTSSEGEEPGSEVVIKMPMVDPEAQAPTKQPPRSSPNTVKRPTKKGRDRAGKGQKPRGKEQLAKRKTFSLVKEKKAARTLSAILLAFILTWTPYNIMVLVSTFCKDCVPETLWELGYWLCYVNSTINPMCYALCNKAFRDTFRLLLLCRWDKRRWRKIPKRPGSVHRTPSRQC

| Structure (SMILES) | predicted hepatic clearance CLhep (human) [1] [mL/min/kg] | predicted hepatic clearance CLhep (rat) [mL/min/kg] | M4 inhibitory activity (in words) [2] | other results |
| --- | --- | --- | --- | --- |
| CCc1ccc(Oc2cc(N3CCC(C(=O)N4CCc5ccccc5C4)CC3)ncn2)cc1 [Compound 5] | 20.3 | 68.6 | – | – |
| COc1ccc2c(c1)CCN(C(=O)C1CCN(c3cc(Oc4ccc(F)cc4F)ncn3)CC1)C2 [Compound 17b] | – | – | retained M4 inhibitory activity | – |
| COc1ccc2c(c1)CN(C(=O)C1CCN(c3cc(Oc4ccc(F)cc4F)ncn3)CC1)CC2 [Compound 17c] | – | – | retained M4 inhibitory activity | – |
| O=C(C1CCN(c2cc(Oc3ccc(F)cc3F)ncn2)CC1)N1CCC2CCCCC2C1 (stereo not shown) [Compound 17d] | – | – | retained M4 inhibitory activity | – |
| O=C(C1CCN(c2cc(Oc3ccc(F)cc3F)ncn2)CC1)N1Cc2ccccc2C1 [Compound 17e, (1-(6-(2,4-difluorophenoxy)pyrimidin-4-yl)piperidin-4-yl)(isoindolin-2-yl)methanone] | 5.56 | 36.5 | – | M5 % ACh Min [3]: 42.6 % ACh Min; predicted CLhep with inclusion of binding terms in the well-stirred model (rat): 5.93 mL/min/kg; M1 % ACh Min [4]: 18.2 % ACh Min |

Source: publication PMC5508519 (Bioorganic & medicinal chemistry letters, 2017)
